Data on 11 compounds can be found in patent US7179954B1, “Isolated nucleic acids coding for a nuclear base transporter and uses thereof” (Carnegie Insitution of Washington, priority 1999, dated 2007).

What is called Ki is the dissociation constant of the complex between target and ligand, obtained from inhibition or displacement.

In test [1] the target is T1, PUP1 nuclear base transporter (Arabidopsis thaliana, UniProt Q9FZ96, S63G).
T1 construct: The PUP1 protein expressed by the yeast strain MG887ura3^−::pFL61-PUP1; expressed in transfected cells; host or cells: Saccharomyces cerevisiae MG887ura3- (fcy2), plasmid pFL61-PUP1
T1 sequence (Q9FZ96 whole entry S63G): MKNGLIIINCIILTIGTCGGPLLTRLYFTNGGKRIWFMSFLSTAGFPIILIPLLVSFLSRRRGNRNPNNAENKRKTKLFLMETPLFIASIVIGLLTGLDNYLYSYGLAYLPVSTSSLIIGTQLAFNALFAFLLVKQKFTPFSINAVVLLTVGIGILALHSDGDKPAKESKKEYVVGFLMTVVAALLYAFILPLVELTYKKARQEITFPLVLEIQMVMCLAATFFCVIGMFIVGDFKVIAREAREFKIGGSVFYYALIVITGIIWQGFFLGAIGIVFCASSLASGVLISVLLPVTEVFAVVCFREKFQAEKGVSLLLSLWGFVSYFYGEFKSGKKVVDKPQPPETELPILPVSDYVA
It counts as cell-based. Conditions: for Transport of cytokinin by PUP1: 3H-labelled cytokinins. Here is the method:
The uptake was set temporarily at a concentration of 100 μM trans-zeatin. In this case PUP1 was expressed under control of the yeast ATPase promoter PMA1 in the vector pDR195 (Rentsch et al., 1995, FEBS Left. 370, […]) in the mutant MG877ura3^−::(FCY). The empty vector (FCY2pDR195) served as control.
(§1) For measuring the rate of uptake the yeast strains MG887ura3^−::pFL61, MG887ura3^−::pFL61-PUP1 and their original strain Σ1278b (Dubois & Grenson, 1979, Mol. Gen. Genet. 175, 67–76) were cultured in complete medium (YPD) without uracil and with 2% glucose as carbon source up to an OD600 of 0.6 at 28° C. The cells were harvested at 3000 g, washed twice with water and brought to an OD600 of 12 with sodium phosphate buffer (100 mM, pH 4.5), 1% glucose. The cell suspension was stored in 100 μl portions on ice up to the beginning of the uptake measurements. Before the start of the uptake measurements the cells were pre-incubated at 30° C. for 2 minutes. The reaction was then started, by which 100 μl of radioactively labelled substrate solution was added to 100 μl cell suspension. The reaction mixture was incubated at 30° C. and after 30, 60, 120 and 180 seconds in each case 50 μl of suspension was withdrawn and placed in 4 ml of ice-cold water (in measurements over 180 seconds more cell suspension and substrate solution were correspondingly added). The cells were absorbed on to glass fibre filters and washed with 4 ml of ice-cold water. The radioactivity on the filters was finally ascertained in a liquid scintillation counter.
The uptake experiments were carried out with ^3H-labelled zeatine in MG887ura3^− as for adenine. To start the reaction 87.3Bq/μl of the radioactive substrate was added to a total concentration of 100 μM trans-zeatine.

The target of test [2] is T1, PUP1 nuclear base transporter. Kind of test: Influence of inhibitors on PUP1-mediated adenine or cytosine uptake in yeast strain MG887ura3-::pFL61-PUP1. It counts as cell-based. Conditions: for Relative adenine uptake / Relative cytosine uptake: added five minutes before measurement, without inhibitor = 100; for Effect on PUP1-mediated adenine or cytosine uptake: statement in words. Here is the method:
as §1
(§2) Substrate solution: For the substrate solution what is concerned is a 100 mM sodium phosphate buffer pH 4.5 with 1% glucose and 9.25 Bq/μl of radioactively labelled substrate (25–100 μM [^14C] adenine or [^14C] cytosine). In addition the substrate solution contains the unlabelled substrate, possible inhibitors and competitors in double end-concentration. For estimation of the optimum pH the pH value of the sodium phosphate buffer is also changed. When the influence of glucose on the uptake rate is measured neither the cell suspension nor the substrate solution contains glucose. Glucose is only added after starting the uptake measurements at the commencement of measuring at an end-concentration of 1%.
The influence of various inhibitors on the adenine or cytosine uptake mediated by the PUP1 nuclear base transporter in the yeast strain MG887ura3^−::pFL61-PUP1 is indicated in Table 2. The inhibitors were added to the cells five minutes before beginning the measurements. […] This may be taken as a clear indication of a secondarily active proton-associated uptake mechanism.

For test [3], the target named is T2, PUP1 nuclear base transporter (Arabidopsis thaliana, UniProt Q9FZ96).
T2 construct: The PUP1 protein expressed by the yeast strain MG887ura3^−::pFL61-PUP1; expressed in transfected cells; host or cells: Saccharomyces cerevisiae MG887ura3- (fcy2), plasmid pFL61-PUP1
T2 sequence (Q9FZ96 whole entry S63G): as above
Description: Uptake of radioactively labelled adenine and cytosine by yeast strain MG887ura3-::pFL61-PUP1. It counts as cell-based. The settings on record: initial concentration medium 200 μM; intracellular, cell volume estimated as four times the dry weight. Here is the method: as §1, §2
(§3) In Table 1 the uptake of radioactively labelled adenine and cytosine mediated by the PUP1 nuclear base transporter is indicated by the yeast strain MG887ura3^−::pFL61-PUP1. For calculation of the intracellular concentration the cell volume is estimated as four times the dry weight (Ninnemann et al., 1994, EMBO J. 15, 3464–3471). The uptake occurs against a concentration gradient.

In test [4] the target is T1, PUP1 nuclear base transporter. Described as above. The format is cell-based. Here is the method:
as §1, §2, §3

Test [5] concerns the target T3, PUP1 (Arabidopsis thaliana, UniProt Q9FZ96, S63G). Description: Growth of yeast strain DM734-284D on adenosine minimal medium (adenosine transport complementation). The format is cell-based. Also noted: PUP1 was expressed under control of the yeast ATPase promoter PMA1 in the vector pDR195; expressed in transfected cells; host or cells: Saccharomyces cerevisiae MG887ura3- (A5, A8) or DM734-284D (A7), construct pDR195PUP1. Conditions: minimal medium with 150 μM adenosine instead of adenine; after 3 days. The source says: The Saccharomyces cerevisiae strain DM734-284D (genotype: ade8-18, ade2-1, arg-4-16, leu2-17, trp1-1, lys2, ura3: Yeast Genetic Stock Center) was used for growth studies. This yeast strain owing to mutations at the gene loci ade 8-18 and ade 2-1 is not itself in a position to synthesize adenine. […] This adenine is taken up via the purine/cytosine transporter FCY2 of the yeast. The DM734-284D strain is however still in a position to grow in medium containing adenosine instead of adenine, provided adenosine transport in the yeast cells is mediated by an adenosine transporter inserted by genetic engineering.
In order to check whether PUP1 mediates the transport of adenosine, the strain DM734-284D was transformed according to the standard procedure for yeast transformation (Dohmen et al., 1991, Yeast 7,691–692) with the constructs pDR195PUP1 and pDR195 as controls (Rentsch et al., 1995, FEBS Lett. 370, […]). For final checking of the transformation the early stages of transformation were plated on minimal medium containing 150 μM adenine and the amino acids arginine, leucine, tryptophane (each 60 mg/l) and lysine (70 mg/l) necessary for growth. Uracil served as transformation marker. Three independent positive clones of the control and the PUP1-expressing clone were plated on minimal medium containing 150 μM adenosine instead of 150 μM adenine.

In test [6] the target is T3, PUP1. Description: Sensitivity of yeast MG887ura3- clones to caffeine-containing minimal medium. The format is cell-based. The settings on record: minimal medium plates, 6 days at 28° C. Set-up: PUP1 was expressed under control of the yeast ATPase promoter PMA1 in the vector pDR195; expressed in transfected cells; host or cells: Saccharomyces cerevisiae MG887ura3- (A5, A8) or DM734-284D (A7), construct pDR195PUP1. The protocol: In order to check whether PUP1 mediates the transport of caffeine, the sensitivity of the Saccharomyces cerevisiae strain MG887ura3^− to caffeine-containing minimal medium was investigated. At certain concentrations caffeine is toxic to yeast (Bard et al., J. Bacteriol. 141, 999–1002), leading to slower growth or death of the yeast.
For this test various caffeine concentrations between 0 and 1.5% were put into minimal medium. Yeast clones grown in liquid minimal medium for 16 hours were spread out on the corresponding plates and incubated for 6 days at 28° C.

Test [7] deals with T1, PUP1 nuclear base transporter. Kind of test: cell-based. Here is the method:
as §1

T3 sequence (Q9FZ96 whole entry S63G): as above

2-isopentenyl adenine: the “Transport of cytokinin by PUP1” value in test [1] is “can also transport cytokinins”.
In test [2] (100 μM inhibitor), `O=[N+]([O-])c1ccc(O)c([N+](=O)[O-])c1` [2,4-DNP, 2,4-dinitrophenol] came in with a Relative adenine uptake of 54% and a Relative cytosine uptake of 58%. The “Effect on PUP1-mediated adenine or cytosine uptake” value (“Effect” for short) in test [2] is “block the uptake”.
In test [2] (100 μM inhibitor), `N#CC(C#N)=NNc1cccc(Cl)c1` [CCCP, carbonyl-cyanide-m-chlorphenylhydrazone] yielded a Relative adenine uptake of 13% and a Relative cytosine uptake of 20%. The “Effect” value in test [2] is “block the uptake”.
In the case of `Nc1cc[nH]c(=O)n1` [Cytosine, cytosine], the “End conc Cells” value in test [3] was 2660 µM. Moreover, the Enrichment factor in test [4] (cells versus medium, initial concentration medium 200 μM) turned out to be 18. The “End conc. Medium” value in test [4] (initial concentration medium 200 μM, yeast strain MG887ura3-::pFL61-PUP1) was 145 µM. The “pH dependence of PUP1-mediated uptake” value in test [4] (yeast strain MG887ura3-::pFL61-PUP1, FIG. 2, substrate 100 μM) is “dependent on the pH level”. Further, the “Glucose dependence of PUP1-mediated uptake” value in test [4] (yeast strain MG887ura3-::pFL61-PUP1, FIG. 3, glucose 1%) is recorded as “glucose-dependent”.
On to `C(=NC1CCCCC1)=NC1CCCCC1` [DCCD], for which, in test [2] (100 μM inhibitor), the Relative adenine uptake is on record as 47% and the Relative cytosine uptake amounted to 55%.
Take `Nc1ncnc2c1ncn2[C@@H]1O[C@H](CO)[C@@H](O)[C@H]1O` [adenosine]: on PUP1 [5], the “Growth of PUP1-expressing clone” value was “Definite growth” and the “Growth of clone transformed with the vector pDR195 (control)” value is “no growth”.
Consider `Cn1c(=O)c2c(ncn2C)n(C)c1=O` [caffeine], for which the “Caffeine concentration from which PUP1-expressing yeasts displayed distinctly slowed-down growth compared to control and PUP2-expressing strain” value on PUP1 [6] is on record as no less than 0.2%.
As for `C[C@@H]1C[C@@H]([C@H](O)CC2CC(=O)NC(=O)C2)C(=O)[C@@H](C)C1` [cycloheximide], in test [2] (10 μg/ml inhibitor), the Relative adenine uptake came to 95% and the Relative cytosine uptake came to 97%.
Consider `CC/C(=C(/CC)c1ccc(O)cc1)c1ccc(O)cc1` [diethylstilboestrol], for which, in test [2] (100 μM inhibitor), the Relative adenine uptake is recorded as 4% and the Relative cytosine uptake is 8%. Moreover, the “Effect” value in test [2] was “block the uptake”.
The compound `c1coc(CNc2ncnc3[nH]cnc23)c1` [kinetin] yielded a Ki in test [7] of 35 µM. That is a double-digit micromolar value.
For `C/C(=C\CNc1ncnc2[nH]cnc12)CO` [zeatin], the “Increased uptake of radioactively labelled trans-zeatine, PUP1-expressing clone versus control strain (pDR195)” value in test [1] (100 μM trans-zeatine, three independent experiments) is given as 70 times. Moreover, the “Transport of cytokinin by PUP1” value in test [1] is recorded as “can also transport cytokinins”. In test [7], this compound came in with a Ki of 30 µM.
